The source of these data is patent publication US10780090B2, “Heteroaryl compounds useful as inhibitors of SUMO activating enzyme” (Millennium Pharmaceuticals, Inc., priority 2014, dated 2020).

In the assay the target is recombinant human SAE enzyme (Homo sapiens (Human), UniProt Q9UBT2). As to the kind of experiment: SAE HTRF enzyme assay. It is filed as biochemical. To be noted: for Percent Inhibition: Concentration 0.111 μM; for IC50: class symbols A/B/C. The procedure, abridged:
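0.11 nM SAE incubated with 0.5 μM ATP, 0.01 μM Ubc9-GST and 0.125 μM Sumo-Flag in HEPES pH 7.5, MgCl2, GSH, BSA, ±inhibitor, 105 min at 24° C. EDTA stop; Eu-cryptate anti-Flag/XL-APC anti-GST HTRF read after 2 h. Values given as single-concentration % inhibition or IC50.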

Structures are written as SMILES. Some results are limits rather than exact numbers.

Usually IC50 stands for the concentration that inhibits the measured activity by half.

Chain of recombinant human SAE enzyme (Q9UBT2 whole entry): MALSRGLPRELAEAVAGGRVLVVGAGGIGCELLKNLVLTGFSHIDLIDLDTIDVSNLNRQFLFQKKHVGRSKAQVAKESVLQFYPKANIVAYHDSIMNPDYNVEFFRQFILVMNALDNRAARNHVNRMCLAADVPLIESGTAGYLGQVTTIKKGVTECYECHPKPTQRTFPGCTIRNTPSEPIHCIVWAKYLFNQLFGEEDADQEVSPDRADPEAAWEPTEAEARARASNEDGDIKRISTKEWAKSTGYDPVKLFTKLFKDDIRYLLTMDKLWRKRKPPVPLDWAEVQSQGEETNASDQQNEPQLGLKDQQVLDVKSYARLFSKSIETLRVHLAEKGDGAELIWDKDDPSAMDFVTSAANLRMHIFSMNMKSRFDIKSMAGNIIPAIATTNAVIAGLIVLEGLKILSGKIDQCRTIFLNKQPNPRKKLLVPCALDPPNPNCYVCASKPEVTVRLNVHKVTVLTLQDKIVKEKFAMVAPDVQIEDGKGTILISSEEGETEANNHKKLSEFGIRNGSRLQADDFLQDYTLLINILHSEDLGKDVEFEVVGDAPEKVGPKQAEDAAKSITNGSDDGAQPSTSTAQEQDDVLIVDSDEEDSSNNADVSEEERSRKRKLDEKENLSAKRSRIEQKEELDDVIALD
Chain of recombinant human SAE enzyme (Q9UBE0 whole entry partner): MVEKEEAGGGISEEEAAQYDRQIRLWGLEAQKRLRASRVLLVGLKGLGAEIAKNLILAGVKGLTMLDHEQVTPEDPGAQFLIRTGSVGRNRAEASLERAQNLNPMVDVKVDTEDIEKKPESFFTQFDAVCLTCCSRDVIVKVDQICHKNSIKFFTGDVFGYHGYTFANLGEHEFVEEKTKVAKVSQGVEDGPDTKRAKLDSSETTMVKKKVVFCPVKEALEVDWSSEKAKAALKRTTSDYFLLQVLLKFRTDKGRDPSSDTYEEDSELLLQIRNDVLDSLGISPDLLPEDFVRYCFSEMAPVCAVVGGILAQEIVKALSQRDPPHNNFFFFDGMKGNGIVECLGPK

As to `Cc1sc(C(=O)c2cncnc2N[C@@H]2C[C@H](COS(N)(=O)=O)[C@@H](O)[C@H]2O)cc1[C@@H]1OCCc2ccccc21` (single isomer, unassigned) [I-250a, [(1R,2R,3S,4R)-4-{[5-({4-[(1R)-3,4-dihydro-1H-isochromen-1-yl]-5-methyl-2-thienyl}carbonyl)pyrimidin-4-yl]amino}-2,3-dihydroxycyclopentyl]methyl sulfamate or [(1R,2R,3S,4R)-4-{[5-({4-[(1S)-3,4-dihydro-1H-isochromen-1-yl]-5-methyl-2-thienyl}carbonyl)pyrimidin-4-yl]amino}-2,3-dihydroxycyclopentyl]methyl sulfamate], the “Percent Inhibition” value amounted to 97 and the IC50 is less than 10 nM.

Regarding `Cc1sc(C(=O)c2cncnc2N[C@@H]2C[C@H](COS(N)(=O)=O)[C@@H](O)[C@H]2O)cc1[C@@H]1OCCc2ccccc21` (single isomer, unassigned) [I-250b, [(1R,2R,3S,4R)-4-{[5-({4-[(1R)-3,4-dihydro-1H-isochromen-1-yl]-5-methyl-2-thienyl}carbonyl)pyrimidin-4-yl]amino}-2,3-dihydroxycyclopentyl]methyl sulfamate or [(1R,2R,3S,4R)-4-{[5-({4-[(1S)-3,4-dihydro-1H-isochromen-1-yl]-5-methyl-2-thienyl}carbonyl)pyrimidin-4-yl]amino}-2,3-dihydroxycyclopentyl]methyl sulfamate], the “Percent Inhibition” value is given as 98 and the IC50 was less than 10 nM.

Turning to `NS(=O)(=O)OC[C@H]1C[C@@H](Nc2ncncc2C(=O)c2cc([C@@H]3NCCc4ccc(Br)cc43)c(Cl)s2)C[C@@H]1O` (single isomer, unassigned) [I-251a, [(1R,2S,4R)-4-{[5-({4-[(1R)-7-bromo-1,2,3,4-tetrahydroisoquinolin-1-yl]-5-chloro-2-thienyl}carbonyl)pyrimidin-4-yl]amino}-2-hydroxycyclopentyl]methyl sulfamate or [(1R,2S,4R)-4-{([5-({4-[(1S)-7-bromo-1,2,3,4-tetrahydroisoquinolin-1-yl]-5-chloro-2-thienyl}carbonyl)pyrimidin-4-yl]amino}-2-hydroxycyclopentyl]methyl sulfamate], the “Percent Inhibition” value stood at 100 and the IC50 was less than 10 nM.

On to `NS(=O)(=O)OC[C@H]1C[C@@H](Nc2ncncc2C(=O)c2cc([C@@H]3NCCc4ccc(Br)cc43)c(Cl)s2)C[C@@H]1O` (single isomer, unassigned) [I-251b, [(1R,2S,4R)-4-{[5-({4-[(1R)-7-bromo-1,2,3,4-tetrahydroisoquinolin-1-yl]-5-chloro-2-thienyl}carbonyl)pyrimidin-4-yl]amino}-2-hydroxycyclopentyl]methyl sulfamate or [(1R,2S,4R)-4-{[5-({4-[(1S)-7-bromo-1,2,3,4-tetrahydroisoquinolin-1-yl]-5-chloro-2-thienyl}carbonyl)pyrimidin-4-yl]amino}-2-hydroxycyclopentyl]methyl sulfamate], for which the “Percent Inhibition” value amounted to 97 and the IC50 is less than 10 nM.

With `C#Cc1ccc2c(c1)[C@H](c1cc(C(=O)c3cncnc3N[C@@H]3C[C@H](COS(N)(=O)=O)[C@@H](O)C3)sc1C)OCC2` (single isomer, unassigned) [I-252a, [(1R,2S,4R)-4-{[5-({4-[(1R)-7-ethynyl-3,4-dihydro-1H-isochromen-1-yl]-5-methyl-2-thienyl}carbonyl)pyrimidin-4-yl]amino}-2-hydroxycyclopentyl]methyl sulfamate or [(1R,2S,4R)-4-{[5-({4-[(1S)-7-ethynyl-3,4-dihydro-1H-isochromen-1-yl]-5-methyl-2-thienyl}carbonyl)pyrimidin-4-yl]amino}-2-hydroxycyclopentyl]methyl sulfamate], the “Percent Inhibition” value is reported as 71 and the IC50 fell in the range of 10 to 100 nM.

As to `C#Cc1ccc2c(c1)[C@H](c1cc(C(=O)c3cncnc3N[C@@H]3C[C@H](COS(N)(=O)=O)[C@@H](O)C3)sc1C)OCC2` (single isomer, unassigned) [I-252b, [(1R,2S,4R)-4-{[5-({4-[(1R)-7-ethynyl-3,4-dihydro-1H-isochromen-1-yl]-5-methyl-2-thienyl}carbonyl)pyrimidin-4-yl]amino}-2-hydroxycyclopentyl]methyl sulfamate or [(1R,2S,4R)-4-{([5-({4-[(1S)-7-ethynyl-3,4-dihydro-1H-isochromen-1-yl]-5-methyl-2-thienyl}carbonyl)pyrimidin-4-yl]amino}-2-hydroxycyclopentyl]methyl sulfamate], the “Percent Inhibition” value turned out to be 98 and the IC50 is less than 10 nM.

As for `NS(=O)(=O)OC[C@H]1C[C@@H](Nc2ncncc2C(=O)c2cc([C@@H]3NCCc4ccc(Cl)nc43)c(Cl)s2)C[C@@H]1O` (single isomer, unassigned) [I-253a, [(1R,2S,4R)-4-{[5-({5-chloro-4-[(8S)-2-chloro-5,6,7,8-tetrahydro-1,7-naphthyridin-8-yl-2-thienyl}carbonyl)pyrimidin-4-yl]amino}-2-hydroxycyclopentyl]methyl sulfamate or ((1R,2S,4R)-4-{([5-({5-chloro-4-[(8R)-2-chloro-5,6,7,8-tetrahydro-1,7-naphthyridin-8-yl]-2-thienyl}carbonyl)pyrimidin-4-yl]amino}-2-hydroxycyclopentyl]methyl sulfamate], the “Percent Inhibition” value was found to be 99 and the IC50 was less than 10 nM.

Regarding `NS(=O)(=O)OC[C@H]1C[C@@H](Nc2ncncc2C(=O)c2cc([C@@H]3NCCc4ccc(Cl)nc43)c(Cl)s2)C[C@@H]1O` (single isomer, unassigned) [I-253b, [(1R,2S,4R)-4-{[5-({5-chloro-4-[(8S)-2-chloro-5,6,7,8-tetrahydro-1,7-naphthyridin-8-yl]-2-thienyl}carbonyl)pyrimidin-4-yl]amino}-2-hydroxycyclopentyl]methyl sulfamate or [(1R,2S,4R)-4-{[5-({5-chloro-4-[(8R)-2-chloro-5,6,7,8-tetrahydro-1,7-naphthyridin-8-yl]-2-thienyl}carbonyl)pyrimidin-4-yl]amino}-2-hydroxycyclopentyl]methyl sulfamate], the “Percent Inhibition” value worked out at 83 and the IC50 was in the range of 10 to 100 nM.

On to `NS(=O)(=O)OC[C@H]1C[C@@H](Nc2ncncc2C(=O)c2cc([C@@H]3OCCc4ccccc43)cs2)C[C@@H]1O` (single isomer, unassigned) [I-254a, [(1R,2S,4R)-4-{[5-({4-[(1R)-3,4-dihydro-1H-isochromen-1-yl]-2-thienyl}carbonyl)pyrimidin-4-yl]amino}-2-hydroxycyclopentyl]methyl sulfamate or [(1R,2S,4R)-4-{[5-({4-[(1S)-3,4-dihydro-1H-isochromen-1-yl]-2-thienyl}carbonyl)pyrimidin-4-yl]amino}-2-hydroxycyclopentyl]methyl sulfamate], for which the “Percent Inhibition” value is 81 and the IC50 fell in the range of 10 to 100 nM.

`NS(=O)(=O)OC[C@H]1C[C@@H](Nc2ncncc2C(=O)c2cc([C@@H]3OCCc4ccccc43)cs2)C[C@@H]1O` (single isomer, unassigned) [I-254b, [(1R,2S,4R)-4-{[5-({4-[(1R)-3,4-dihydro-1H-isochromen-1-yl]-2-thienyl}carbonyl)pyrimidin-4-yl]amino}-2-hydroxycyclopentyl]methyl sulfamate or [(1R,2S,4R)-4-{[5-({4-[(S)-3,4-dihydro-1H-isochromen-1-yl]-2-thienyl}carbonyl)pyrimidin-4-yl]amino}-2-hydroxycyclopentyl]methyl sulfamate]: the “Percent Inhibition” value amounted to 99 and the IC50 was less than 10 nM.
